Test results: the supplement of paper PMC4862054

The compounds below were run on Hs578T (assay: normalised response (% of control), CellTiter-Glo; higher = more viable cells (100 = DMSO, 0 = benzethonium chloride kill control)). Conditions: incubation time: 72 h.
Protocol: (§1)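 DSRT, 72 h incubation, CellTox Green / CellTiter-Glo readout. Signal is normalised to DMSO and benzethonium chloride controls. Value is the normalised response at dose 3.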

Structure (SMILES) | normalised response [%]
Cc1cc(Nc2nc(N[C@@H](C)c3ncc(F)cn3)ncc2Cl)[nH]n1 [AZD1480] (10 nM) | 92.2
CC1(COc2ccc3c(c2)ncn3-c2ccc3cccc(N4CCC(N)CC4)c3n2)COC1 [Crenolanib] (100 nM) | 103
Cn1cc(C2=C(c3cn(C4CCN(Cc5ccccn5)CC4)c4ccccc34)C(=O)NC2=O)c2ccccc21 [Enzastaurin] (100 nM) | 98.2
Nc1ccn([C@@H]2O[C@H](CO)[C@@H](O)C2(F)F)c(=O)n1 [Gemcitabine] (10 nM) | 99.3
C=CCn1c(=O)c2cnc(Nc3ccc(N4CCN(C)CC4)cc3)nc2n1-c1cccc(C(C)(C)O)n1 [MK1775] (100 nM) | 87.7
CO[C@@H]1[C@H](N(C)C(=O)c2ccccc2)C[C@H]2O[C@]1(C)n1c3ccccc3c3c4c(c5c6ccccc6n2c5c31)C(=O)NC4 [Midostaurin] (100 nM) | 83.3
CCNC(=O)c1noc(-c2cc(C(C)C)c(O)cc2O)c1-c1ccc(CN2CCOCC2)cc1 [NVP-AUY922] (10 nM) | 104
O=[N+]([O-])c1ccc2c(c1)S(=O)(=O)C=C2 [Stattic] (500 nM) | 96.5
O=C(CCCCCCC(=O)Nc1ccccc1)NO [Vorinostat] (100 nM) | 98.2

The compounds below were run on HCC1599 in the same assay as above. Conditions: incubation time: 72 h.
Protocol: as §1

Structure (SMILES) | normalised response [%]
Cc1cc(Nc2nc(N[C@@H](C)c3ncc(F)cn3)ncc2Cl)[nH]n1 [AZD1480] (10 nM) | 107
CC1(COc2ccc3c(c2)ncn3-c2ccc3cccc(N4CCC(N)CC4)c3n2)COC1 [Crenolanib] (100 nM) | 110
Cn1cc(C2=C(c3cn(C4CCN(Cc5ccccn5)CC4)c4ccccc34)C(=O)NC2=O)c2ccccc21 [Enzastaurin] (100 nM) | 90.6
Nc1ccn([C@@H]2O[C@H](CO)[C@@H](O)C2(F)F)c(=O)n1 [Gemcitabine] (10 nM) | 89.5
C=CCn1c(=O)c2cnc(Nc3ccc(N4CCN(C)CC4)cc3)nc2n1-c1cccc(C(C)(C)O)n1 [MK1775] (100 nM) | 81.2
CO[C@@H]1[C@H](N(C)C(=O)c2ccccc2)C[C@H]2O[C@]1(C)n1c3ccccc3c3c4c(c5c6ccccc6n2c5c31)C(=O)NC4 [Midostaurin] (100 nM) | 99.6
CCNC(=O)c1noc(-c2cc(C(C)C)c(O)cc2O)c1-c1ccc(CN2CCOCC2)cc1 [NVP-AUY922] (10 nM) | 111
O=[N+]([O-])c1ccc2c(c1)S(=O)(=O)C=C2 [Stattic] (500 nM) | 103
O=C(CCCCCCC(=O)Nc1ccccc1)NO [Vorinostat] (100 nM) | 113

The compounds below were run on MDA-MB-231 in the same assay as above. Conditions: incubation time: 72 h.
Protocol: as §1

Structure (SMILES) | normalised response [%]
Cc1cc(Nc2nc(N[C@@H](C)c3ncc(F)cn3)ncc2Cl)[nH]n1 [AZD1480] (10 nM) | 96.1
CC1(COc2ccc3c(c2)ncn3-c2ccc3cccc(N4CCC(N)CC4)c3n2)COC1 [Crenolanib] (100 nM) | 113
Cn1cc(C2=C(c3cn(C4CCN(Cc5ccccn5)CC4)c4ccccc34)C(=O)NC2=O)c2ccccc21 [Enzastaurin] (100 nM) | 103
Nc1ccn([C@@H]2O[C@H](CO)[C@@H](O)C2(F)F)c(=O)n1 [Gemcitabine] (10 nM) | 85.3
C=CCn1c(=O)c2cnc(Nc3ccc(N4CCN(C)CC4)cc3)nc2n1-c1cccc(C(C)(C)O)n1 [MK1775] (100 nM) | 81.5
CO[C@@H]1[C@H](N(C)C(=O)c2ccccc2)C[C@H]2O[C@]1(C)n1c3ccccc3c3c4c(c5c6ccccc6n2c5c31)C(=O)NC4 [Midostaurin] (100 nM) | 85.8
CCNC(=O)c1noc(-c2cc(C(C)C)c(O)cc2O)c1-c1ccc(CN2CCOCC2)cc1 [NVP-AUY922] (10 nM) | 110
O=[N+]([O-])c1ccc2c(c1)S(=O)(=O)C=C2 [Stattic] (500 nM) | 90.8
O=C(CCCCCCC(=O)Nc1ccccc1)NO [Vorinostat] (100 nM) | 93.6

These compounds were tested on CAL-85-1 in the same assay as above. Conditions: incubation time: 72 h.
Protocol: as §1

Structure (SMILES) | normalised response [%]
Cc1cc(Nc2nc(N[C@@H](C)c3ncc(F)cn3)ncc2Cl)[nH]n1 [AZD1480] (10 nM) | 103
CC1(COc2ccc3c(c2)ncn3-c2ccc3cccc(N4CCC(N)CC4)c3n2)COC1 [Crenolanib] (100 nM) | 112
Cn1cc(C2=C(c3cn(C4CCN(Cc5ccccn5)CC4)c4ccccc34)C(=O)NC2=O)c2ccccc21 [Enzastaurin] (100 nM) | 107
Nc1ccn([C@@H]2O[C@H](CO)[C@@H](O)C2(F)F)c(=O)n1 [Gemcitabine] (10 nM) | 85.6
C=CCn1c(=O)c2cnc(Nc3ccc(N4CCN(C)CC4)cc3)nc2n1-c1cccc(C(C)(C)O)n1 [MK1775] (100 nM) | 90.3
CO[C@@H]1[C@H](N(C)C(=O)c2ccccc2)C[C@H]2O[C@]1(C)n1c3ccccc3c3c4c(c5c6ccccc6n2c5c31)C(=O)NC4 [Midostaurin] (100 nM) | 99
CCNC(=O)c1noc(-c2cc(C(C)C)c(O)cc2O)c1-c1ccc(CN2CCOCC2)cc1 [NVP-AUY922] (10 nM) | 107
O=[N+]([O-])c1ccc2c(c1)S(=O)(=O)C=C2 [Stattic] (500 nM) | 99.5
O=C(CCCCCCC(=O)Nc1ccccc1)NO [Vorinostat] (100 nM) | 105

These compounds were tested on DU-4475 in the same assay as above. Conditions: incubation time: 72 h.
Protocol: as §1

Structure (SMILES) | normalised response [%]
Cc1cc(Nc2nc(N[C@@H](C)c3ncc(F)cn3)ncc2Cl)[nH]n1 [AZD1480] (10 nM) | 93.9
CC1(COc2ccc3c(c2)ncn3-c2ccc3cccc(N4CCC(N)CC4)c3n2)COC1 [Crenolanib] (100 nM) | 104
Cn1cc(C2=C(c3cn(C4CCN(Cc5ccccn5)CC4)c4ccccc34)C(=O)NC2=O)c2ccccc21 [Enzastaurin] (100 nM) | 99.4
Nc1ccn([C@@H]2O[C@H](CO)[C@@H](O)C2(F)F)c(=O)n1 [Gemcitabine] (10 nM) | 96.8
